Entries after “also recorded” stand apart in the source; their conditions may differ.
Columns and labels:
[1] = system: TNBS-induced colitis in rats; experiment: TNBS-induced colitis in rats, chronic 8-day study
Experimental: Male Wistar rats (250-300 g) were starved for 24 hours prior to being anaesthetised with ketamine (80 mg/kg i.p.) and xylazine (8 mg/kg i.p.). […] 120 mg/kg TNBS (50 mg/mL solution) along with 250 μL ethanol (100%) was then instilled to rats, which remained in the head-down position for 30 min to prevent leakage. Sham-operated rats (rats without colitis) received either saline alone or 250 μL ethanol and saline. Rats were then allowed to recover under observation.
At the completion of each experiment, rats were anaesthetized with zolazapam (50 mg/kg, IP) and xylazine (12 mg/kg, IP), and blood was collected and serum stored at −20° C. for later determination of TNF-α concentrations. Colons were dissected, and the distal 8-cm rinsed with saline and scored for clinical macroscopic damage by an independent blinded observer, using a scale of 0-13 as set out below (Bobin-Dubigeon et al, 2001). A section of the affected colon was then collected, weighed, placed in an 80° C. oven for 24 h, then reweighed and the wet-to-dry weight ratio determined as a measure of colon oedema (Rachmilewitz et al., 1989). A separate section of affected colon was also collected and homogenized with 1 mL phosphate buffered saline, sonicated for 20 seconds and centrifuged (14 000×g, 10 min). The resulting supernatant was then either stored (−20° C.) for later TNF-α determination, or used immediately in an assay for the determination of myeloperoxidase (MPO) levels. Briefly, the assay involved the addition of 20 μL substrate (o-dianisidine, 2.85 mg/mL, Sigma, U.S.A.; and 0.85% hydrogen peroxidase) to a 1:40 dilution of supernatant in phosphate buffered saline. […] Results for colon MPO content were converted to absorbance units/g tissue. Additional sections of colon were removed and stored in 10% formalin for histopathological analysis. Fixed colonic samples were embedded in paraffin wax, and sections were stained using a haematoxylin and eosin stain, photographed and examined by an independent observer in a blinded fashion. Tissue and serum TNF-α levels were determined from stored samples using an enzyme-linked immunoabsorbent assay as previously described (Arumugam et al, 2002), using undiluted samples. Results for colonic TNF-α content were then converted to pg TNF-α /g tissue.
In the 8-day study, drug-treated rats were treated both prior to colitis induction (2 days before; prevention) or following colitis induction (24 hours after; reversal).
All experimental results are expressed as means±standard error of the mean (SEM). Data analysis was performed using GraphPad Prism 3.0 software (GraphPad Software, Inc. USA). Statistical comparisons were made between drug-treated groups and colitis control animals using a one-way analysis of variance followed by a Dunnett comparison post-test analysis. Statistical significance was assessed at P<0.05.

[2] = system: TNBS-induced colitis in rats; experiment: TNBS-induced colitis in rats, acute 24-hour study; assay type: in vivo, rat; conditions: for colon macroscopic score: scale 0-13
Experimental: Two time-frames were chosen for this study, an acute time frame (24 hours), and a chronic time frame (8-days). During the course of the study both body weight and food eaten were measured daily. In the 24-hour study, all drug treatments commenced 2 days prior to instillation of TNBS (prevention). PMX53-, prednisolone- and combination-treated rats were treated once daily, and C3a antagonist-treated rats were dosed twice daily. Rats treated with the anti-TNF-α monoclonal antibody, infliximab, were dosed intravenously on one occasion, 2 days prior to TNBS instillation.
Statistical significance was assessed at P<0.05.

[3] = target: T1, C3a receptor (Homo sapiens, UniProt Q16581); conditions: Finch et al, 1999; cited from earlier work
T1 sequence (Q16581 1-482): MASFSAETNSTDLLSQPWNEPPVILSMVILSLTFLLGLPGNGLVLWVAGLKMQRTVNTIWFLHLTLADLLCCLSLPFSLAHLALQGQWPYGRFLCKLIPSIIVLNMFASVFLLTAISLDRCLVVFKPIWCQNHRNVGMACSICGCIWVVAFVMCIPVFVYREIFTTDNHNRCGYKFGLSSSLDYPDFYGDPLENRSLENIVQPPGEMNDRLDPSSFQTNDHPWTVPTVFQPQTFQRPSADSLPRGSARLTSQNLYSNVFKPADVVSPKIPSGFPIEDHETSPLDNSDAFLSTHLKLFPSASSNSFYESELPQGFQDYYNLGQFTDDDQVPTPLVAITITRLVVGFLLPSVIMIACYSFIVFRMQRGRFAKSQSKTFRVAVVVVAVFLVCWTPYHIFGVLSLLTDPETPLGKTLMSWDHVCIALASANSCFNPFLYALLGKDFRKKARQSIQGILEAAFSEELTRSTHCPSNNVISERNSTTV

[4] = system: C5a receptor; conditions: cited from earlier work
[5] = system: membrane attack complex; conditions: Arumugam et al, 2003; cited from earlier work
[6] = 8 days, post-treated 1 mg/kg/day SC, P>0.05
[7] = 8 days, pre-treated 1 mg/kg/day SC, P<0.05
[8] = 8 days, pre-treated rats, haematoxylin and eosin sections, vs drug-free rats
[9] = post-treatment (from 24 h after colitis induction; reversal)
[10] = pre-treatment (from 2 days before colitis induction)
[11] = 8 days, pre-treated 3 mg/kg IV, P<0.05
[12] = 24 h, drug pre-treatment, vs drug-free colitis control
[13] = 8 days, prior to induction (10 mg/kg/day oral and 0.3 mg/kg/day SC) or 24 h after induction (1 and 10 mg/kg/day oral), P<0.05
[14] = 8 days, prior to induction (10 mg/kg/day oral and 0.3 mg/kg/day SC) or 24 h after induction (1 and 10 mg/kg/day oral), P<0.05, listed as C5a antagonist
[15] = 24 h, pre-treated 10 mg/kg/day oral or 0.3 mg/kg/day SC, P<0.05 vs colitis control

In the case of C[C@]12C=CC(=O)C=C1CC[C@@H]1[C@@H]2[C@@H](O)C[C@@]2(C)[C@H]1CC[C@]2(O)C(=O)CO [prednisolone], the colon histopathology ([1]; 8 days, post-treated 1 mg/kg/day SC, FIG. 8D) is reported as “showed no improvement in disease pathology; also recorded: IC infiltration, E, extensive haemorrhage (H) and erosion of ML”, the “colonic MPO levels” value [1, 6] is reported as “did not show any improvement in colonic MPO levels” and the “colonic tissue TNF-α levels” value [1, 6] is reported as “no significant reduction”. The food consumption [1, 6] was “no improvement in food consumption”, the “colon oedema (wet-to-dry weight ratio)” value ([1]; 8 days, post-treatment 1 mg/kg/day SC) was “no effect on reducing oedema” and the mortality ([1]; 8 days, post-treatment (24 h after induction)) was “no significant effect on reducing mortality”. The mortality rate ([1]; 8 days, pre-treated 1 mg/kg/day SC) was 11%, the “colonic MPO levels” value [1, 7] was “significantly reduced colonic MPO levels” and the food consumption [1, 7] was “ate significantly more food than colitis control rats”. The “colon oedema (wet-to-dry weight ratio)” value ([1]; 8 days, pre-treated 1 mg/kg/day SC, P>0.05) was “no significant reductions”, the “change in body weight” value ([1]; 8 days, pre-treated or post-treated 1 mg/kg/day SC, P>0.05) was “lost weight over the 8 days, with no significant difference compared to colitis control rats; also recorded: lost considerable body weight” and the colon histopathology [1, 8] was “showed an improvement in pathology”. The colon macroscopic score ([1]; Day 8, post-treated 1 mg/kg/day SC, P>0.05) was “did not have any improvement in macroscopic scores”, the colon macroscopic score ([1]; Day 8, pre-treated 1 mg/kg/day SC, P<0.05) was “significantly improved macroscopic scores” and the “overall disease parameters / markers” value [1, 9] was “reversal of pathology was not seen; also recorded: no appreciable therapeutic effects”. The “overall disease parameters / markers” value [1, 10] was “only prednisolone pre-treated rats displayed any improvement in the disease parameters measured; also recorded: effective at reducing the majority of parameters measured”.

For infliximab, the “colonic MPO levels” value [1, 11] was “significantly reduced colonic MPO levels”, the food consumption [1, 11] was “ate significantly more food than drug-free rats” and the “colon oedema (wet-to-dry weight ratio)” value ([1]; 8 days, pre-treated 3 mg/kg IV, P>0.05) was “no significant reductions”. The colon histopathology [1, 8] was “showed an improvement in pathology”, the mortality ([1]; 8 days, pre-treatment 3 mg/kg IV) was 20% and the colon macroscopic score ([1]; Day 8, pre-treated 3 mg/kg IV, P<0.05) was “significantly decreased scores”. For the same compound, the “change in body weight” value ([1]; Day 8, pre-treated 3 mg/kg IV, P>0.05) was “only a small weight gain at Day 8; however, these levels were not significantly higher than colitis control rats”, the “overall disease parameters / markers” value [1, 10] was “did reduce the severity of lesions, it was not as effective as the C5a antagonist or prednisolone” and the “overall disease parameters / markers” value ([1]; pre-treatment (from 2 days before colitis induction), listed as Infliximab) was “significantly reduced disease parameters, however to a lesser extent than those observed in PMX53-treated rats”. For the same compound, the colon macroscopic score [2, 12] was “significant improvement seen in all treatment groups except for infliximab”.

For AcF-[OPdChaWR] [PMX53], the colon histopathology ([1]; 8 days, post-treated 10 mg/kg/day oral (PO), FIG. 8C) was “decrease in inflammatory cell accumulation and haemorrhage formation”, the colon histopathology ([1]; 8 days, post-treated 10 mg/kg/day oral (PO), FIG. 8C, listed as C5a antagonist) was “showed an improvement in disease pathology; also recorded: IC infiltration and E, but with intact ML” and the deaths ([1]; 8 days, pre-treated 0.3 mg/kg SC) was “no deaths”. The colon histopathology [1, 8] was “showed an improvement in pathology”, the “colon oedema (wet-to-dry weight ratio)” value [1, 13] was “significantly lower” and the “colonic MPO levels (neutrophil accumulation)” value [1, 13] was “significantly lower”. For the same compound, the “colon oedema (wet-to-dry weight ratio)” value [1, 14] was “significant improvement in colon wet-to-dry weight ratios; also recorded: significant reductions in wet-to-dry weight ratios”, the “colonic MPO levels (neutrophil accumulation)” value [1, 14] was “reduced to similar levels to those of the sham-operated animals” and the mortality rate ([1]; 8 days, prior to induction (10 mg/kg/day oral and 0.3 mg/kg/day SC) or 24 h after induction (1 or 10 mg/kg/day oral)) was ≤ 20%. For the same compound, the food consumption ([1]; 8 days, prior to induction (10 mg/kg/day oral and 0.3 mg/kg/day SC) or 24 h after induction (1 or 10 mg/kg/day oral), P<0.05) was “ate significantly more food”, the food consumption ([1]; 8 days, prior to induction (10 mg/kg/day oral and 0.3 mg/kg/day SC) or 24 h after induction (1 or 10 mg/kg/day oral), P<0.05, listed as C5a antagonist) was “ate significantly more food than colitis control rats” and the “change in body weight” value ([1]; 8 days, prior to induction (10 mg/kg/day oral and 0.3 mg/kg/day SC) or 24 h after induction (1 or 10 mg/kg/day oral), P<0.05 vs colitis control) was “lost significantly less body weight”. For the same compound, the “change in body weight” value ([1]; 8 days, prior to induction (10 mg/kg/day oral and 0.3 mg/kg/day SC) or 24 h after induction (1 or 10 mg/kg/day oral), P<0.05 vs colitis control, listed as C5a antagonist) was “gained significant weight; also recorded: gained substantial weight over the 8 days, with significantly higher weights compared to colitis control rats”, the colon macroscopic score ([1]; Day 8, prior to induction (10 mg/kg/day oral and 0.3 mg/kg/day SC) or 24 h after induction (1 or 10 mg/kg/day oral), P<0.05) was “significantly lower colon macroscopic scores” and the colon macroscopic score ([1]; Day 8, prior to induction (10 mg/kg/day oral and 0.3 mg/kg/day SC) or 24 h after induction (1 or 10 mg/kg/day oral), P<0.05, listed as C5a antagonist) was “significantly improved macroscopic scores”. The “colonic tissue TNF-α levels” value ([1]; after 8 days, vs drug-free colitis control, P<0.05) was “significantly lower”, the mortality ([1]; over 8 days, vs drug-free colitis control (39%)) was “reduced mortality” and the “overall disease parameters / markers” value [1, 9] was “significant reduction in all disease markers”. The “overall disease parameters / markers” value [1, 10] was “markedly reduced all the disease markers measured”, the overall disease pathology ([1]; rat model of chronic colitis, pre- and post-treatment) was “both prevents and reverses disease pathology” and the “binding to the C3a receptor” value [3] was “does not bind”. The “colon TNF-α levels” value ([2]; 24-hour study) was “significantly reduced”, the colon oedema ([2]; 24 h, drug pre-treatment, vs colitis control) was “significantly reduced” and the “colon MPO levels (neutrophil accumulation)” value [2, 12] was “significantly reduced”. For the same compound, the “colon MPO levels” value [2, 15] was “significant improvement”, the “colon oedema (wet-to-dry weight ratio)” value [2, 15] was “significant reduction in wet-to-dry weight ratios” and the colon macroscopic score [2, 12] was “significantly lower colon macroscopic scores”. The food consumption ([2]; 24 h after TNBS, drug pre-treatment from 2 days before TNBS, vs drug-free colitis control) was “higher body weights and food intake”, the “change in body weight” value ([2]; 24 h after TNBS, drug pre-treatment, vs drug-free colitis control) was “higher body weights” and the “overall disease pathology / parameters measured” value ([2]; 24 h study) was “significantly improves disease pathology”. For the same compound, the “specificity for the C5a receptor over other related human receptors” value ([4]; Finch et al, 1999) was “specific for the C5a receptor over other related human receptors”, the “specificity for the C5a receptor across species” value ([4]; human, rat and dog, Woodruff et al, 2001) was “specific for the C5a receptor in human, rat and dog” and the “effect on the formation of the membrane attack complex” value [5] was “no effect”.

In the case of NC(N)=NCCC[C@H](NC(=O)COCC(c1ccccc1)c1ccccc1)C(=O)O [SB 290157, Ph2CHCH2OCH2CO-Arg-OH, reference compound], the “colon oedema (wet-to-dry weight ratio)” value ([2]; 24 h, C3a antagonist 30 mg/kg bid IP, pre-treatment) is reported as “did not have a significant effect”, the “overall disease pathology / parameters measured” value ([2]; 24 h study) is reported as “effective in reducing some of the parameters measured; also recorded: able to modulate the pathology of IBD” and the macroscopic damage ([2]; 24 h study, 30 mg/kg i.p. twice daily, vs colitis control) is reported as “reduced the intensity of macroscopic damage”.

From patent publication US7410945B2, “Treatment of inflammatory bowel disease” (The University of Queensland, priority 2002, dated 2008)
